According to patent US10736883B2, “Triazole furan compounds as agonists of the APJ receptor” (AMGEN INC., priority 2016, dated 2020):

Tests used:
APJ receptor [1] = target: T1, APJ receptor (Homo sapiens (Human), UniProt P35414); assay: [35S]GTPγS binding assay on membranes from CHO cells stably expressing human APJ receptor; format: biochemical; conditions: membranes of CHO cells stably expressing human APJ receptor, means of several independent experiments, read-out: Activity hAPJ SPA EC50 IP
T1 sequence (P35414 whole entry): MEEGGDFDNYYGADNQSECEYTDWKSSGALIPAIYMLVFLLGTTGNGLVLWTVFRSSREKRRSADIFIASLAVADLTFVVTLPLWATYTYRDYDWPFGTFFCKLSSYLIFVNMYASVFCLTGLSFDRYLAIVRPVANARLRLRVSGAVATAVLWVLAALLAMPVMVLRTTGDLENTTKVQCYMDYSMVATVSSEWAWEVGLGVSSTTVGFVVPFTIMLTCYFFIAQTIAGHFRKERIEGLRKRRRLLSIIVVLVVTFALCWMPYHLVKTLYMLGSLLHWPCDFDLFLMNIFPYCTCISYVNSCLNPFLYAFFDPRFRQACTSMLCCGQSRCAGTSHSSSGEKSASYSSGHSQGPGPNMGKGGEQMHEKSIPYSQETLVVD
Summary of the method: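 EC50 values were obtained by non-linear regression of [35S]GTPγS (0.2 nM) binding after 90 min at RT, with nonspecific binding defined by 100 μM GTPγS. Reactions used human APJ–expressing CHO cell membranes on WGA PS beads in HEPES pH 7.5 buffer with 5 mM MgCl2, 200 mM NaCl, 3 μM GDP and 0.1% BSA.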

[2] = test system: isolated perfused rat hearts; assay: Ex vivo isolated perfused rat heart (Langendorff) assay, load independent inotropic/lusitropic effects; conditions: percent change over vehicle
Description: Evidence for Load Independent Inotropic Effects with APJ Agonists Using Ex Vivo Assay (Isolated Perfused Rat Hearts)
Naive Sprague Dawley® SD rats (Harlan laboratories (Livermore, Calif. USA)) were anaesthetized and hearts were excised followed by cannulation in the Langendorff apparatus (Harvard apparatus, Holliston, Mass. USA) via aorta. The heart was perfused retrograde with modified oxygenated Krebs-Henseleit buffer (Skrzypiec-Spring M et al., (2007) J. Pharmacol Toxicol Methods 55: 113-126). The pressure of the solution causes the aortic valve to shut and the perfusate is then forced into the ostium and the coronary vessels. This allows the heart to beat for several hours. A balloon was inserted into the left ventricle (LV) to measure dP/dtmax (derivative of left ventricular pressure) as an index of cardiac contractility. The APJ agonist was perfused constantly in a dose dependent manner into the heart to examine cardiac contractility.
Example 210.0 was infused at different concentrations and load independent contractility was measured by index of LV dP/dtmax and the results are expressed as a percent change over vehicle. […] Example 210.0 was infused at different concentrations and load independent lusitropic effect (relaxation) was measured by index of LV dP/dtmin where results are expressed as percent change over vehicle. […] Example 51.0 was infused at different concentrations and load independent contractility was measured by index of LV dP/dtmax and the results are expressed as a percent change over vehicle. […] Example 51.0 was infused at different concentrations and load independent lusitropic effect (relaxation) was measured by index of LV dP/dtmin where results are expressed as percent change over vehicle.

heart failure rat model = assay: In vivo cardiac contractility in heart failure (MI) rat model; conditions: heart failure rats (LAD ligation), acute administration for 30 min
Method: Evidence for Improvement in Cardiac Contractility In Vivo in Heart Failure Rat Model
Based on the ex vivo findings in isolated heart assay, APJ agonists were dosed in vivo to investigate the translation of cardiac contractility in in vivo settings. Male Lewis rats (Charles River, USA) at 2-3 months of age were used for the study. Heart failure was induced by permanent ligation of the left descending coronary artery which results in injury to the heart with an ejection fraction of <35%. APJ agonists were administered dose dependently acutely for a period of 30 min. Administration of example compounds lead to an increase in cardiac contractility as measured by dP/dtmax (derivative of left ventricular pressure) (Table 27).

isolated rat heart = assay: Isolated rat heart assay with APJ agonist in the presence or absence of AT1R blocker losartan
Description: Evidence for Blockade of AT1R Signaling Enhances the APJ Receptor Signaling Using Ex-Vivo (Isolated Rat Heart Assay) and In Vivo (Myocardial Infraction (MI)-Induced Heart Failure Model)
Naive Sprague Dawley® SD rats were anaesthetized and hearts were excised followed by cannulation in the Langendorff apparatus via aorta. The heart was perfused retrograde with modified oxygenated Krebs-Henseleit buffer. The pressure of the solution causes the aortic valve to shut and the perfusate was then forced into the ostium and the coronary vessels. This allowed the heart to beat for several hours. A balloon was inserted into the left ventricle to measure dp/dtmax as an index of cardiac contractility. The APJ agonist (Example 56.0) was perfused in the presence or absence of AT1R blocker losartan.

[3] = test system: MI-induced heart failure rats; assay: Cardiovascular effects of Example 56.0 and captopril/losartan on MI-induced heart failure rats; format: in vivo, rat; conditions: MI rats
Method: Cardiovascular Effects of Example 56.0 and Captopril/Losartan on MI-Induced Heart Failure Rats
Male Lewis rats at 2-3 months of age were used for the study. MI was induced by ligation of the LAD. Echocardiography (Echo) was performed at one-week post-MI on rats for verification of infarct size and animal enrollment Animals with ejection fractions more than 40% or no visible infarct in myocardium were excluded from the study. All eligible MI rats were randomly divided into 3 groups: 1) those treated with vehicle; 2) those treated with losartan (0.5 g/L in drink water); and 3) those treated with captopril (0.5 g/L in drink water). Treatments were initiated approximately five weeks post-MI and animals were continuously treated with losartan and captopril in drinking water up to 15 days prior to being assigned into each subgroup. These subgroup groups included the following: 1) cohort treated with vehicle; 2) cohort treated with Example 56.0 at various doses; 3) cohort treated only with losartan; 4) cohort treated with losartan and Example 56.0 at various doses; 5) cohort treated only with captopril; and 6) cohort treated with captopril and Example 56.0 at various doses. A Millar PV catheter was inserted into the right common carotid artery and then advanced to the left ventricle (LV) for cardiac hemodynamic assessment and the peripheral arterial pressure was also monitored by a pressure transducer via a femoral artery access in all rats. Following hemodynamic stabilization, baseline steady-state data was acquired Animals in any Example 56 treated group received intravenous infusion of Example 56.0 in a dose-escalated fashion during cardiac hemodynamic assessment. Blood was drawn for actual PK exposure to derive a PK/PD profile.

APJ receptor [4] = target: T1, APJ receptor; conditions: apelin-36, apelin-17 and apelin-13 compared; cited from earlier work
[5] = Example 56.0 alone over vehicle, intravenous infusion

Row | Compound | EC50 (APJ receptor [1]) | Isolated Heart Assay dP/dtmax (%) ([2]; contractility) | Isolated Heart Assay dP/dtmin (%) ([2]; relaxation) | MI Rat Model dP/dtmax (%) (heart failure rat model) | inotropic effects (isolated rat heart; APJ agonist alone) | Emax on co-infusion of AT1R blocker losartan (isolated rat heart; co-infusion of losartan) | increase of potency on co-infusion of AT1R blocker losartan (isolated rat heart; co-infusion of losartan) | heart rate ([3]; Example 56.0 alone or in combination with an ARB or ACE inhibitor) | dp/dtmax [3, 5] | ejection fraction [3, 5] | contractile function ([3]; plus losartan or captopril, over Example 56.0 therapy alone) | in vitro activity (relative potency) (APJ receptor [4])
1 | COc1cccc(OC)c1-n1c(NS(=O)(=O)[C@@H](C)[C@H](C)c2ncc(F)cn2)nnc1-c1ccc(C)o1 [Example 56.0, (2S,3R)—N-(4-(2,6-dimethoxyphenyl)-5-(5-methyl-2-furanyl)-4H-1,2,4-triazol-3-yl)-3-(5-fluoro-2-pyrimidinyl)-2-butanesulfonamide] | 0.071 nM | 23.0% | 24.9% | 30% | dose-dependent increase | increased | 5 fold | did not significantly change | increase | increase | further augmented | 
2 | Apelin-36 (LVQPRGSRNGPGPWQGGRRKFRRQRPRLSHKGPMPF; Apelin-36; UniProt Q9ULZ1 42-77, looked up) |  |  |  |  |  |  |  |  |  |  |  | approximately equipotent
3 | apelin-17 |  |  |  |  |  |  |  |  |  |  |  | approximately equipotent
